Structures are written as SMILES.

One data set concerns the target T1, papain (Carica papaya, UniProt P00784).
T1 construct: purchased Sigma Chem. Co
T1 sequence (P00784 134-345): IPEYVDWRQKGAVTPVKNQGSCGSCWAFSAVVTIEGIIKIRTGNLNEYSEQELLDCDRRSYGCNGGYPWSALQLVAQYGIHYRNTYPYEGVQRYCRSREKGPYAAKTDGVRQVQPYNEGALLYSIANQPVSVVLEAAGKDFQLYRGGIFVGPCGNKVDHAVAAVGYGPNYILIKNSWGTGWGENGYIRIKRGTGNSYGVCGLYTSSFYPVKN
Put plainly: Papain inhibitory activity (method of K. Hanada et al.). The data set is classed as biochemical. Particulars: papain 80 μg/ml, Sigma, twice crystallized. How it is done:
Papain inhibitory activity of the compounds of the present invention was assayed by the method of K. Hanada et al. [Agric. Biol. Chem., 42, (3) 523 (1978)] using papain (80 μg/ml, Sigma Chem. Co.) after twice crystallization.

Data set [1] can be described thus: Concentration in rat plasma after subcutaneous administration. The data set is classed as in vivo. Conditions: sc, rats, 50 mg/kg, an hour after administration. The procedure:
The compounds of the present invention are better absorbed by the subcutaneous route in mammals such as rats or rabbits, as compared with the epoxysuccinic acid derivatives of the German Patent Laid Open Application described above and Chemical Abstracts, 87, 68129a (1977). To determine absorption, these compounds were administered subcutaneously to rats at a dose of 50 mg/kg, and the concentration of the test compound in rat plasma at an hour after the administration is shown in following Table 1.

The target in data set [2] is T2, CANP prepared from a muscle of hereditary muscular dystrophy chicken (Gallus gallus, UniProt P00789).
T2 construct: from tissue; host or cells: muscle of hereditary muscular dystrophy chicken
T2 sequence (P00789 1-705): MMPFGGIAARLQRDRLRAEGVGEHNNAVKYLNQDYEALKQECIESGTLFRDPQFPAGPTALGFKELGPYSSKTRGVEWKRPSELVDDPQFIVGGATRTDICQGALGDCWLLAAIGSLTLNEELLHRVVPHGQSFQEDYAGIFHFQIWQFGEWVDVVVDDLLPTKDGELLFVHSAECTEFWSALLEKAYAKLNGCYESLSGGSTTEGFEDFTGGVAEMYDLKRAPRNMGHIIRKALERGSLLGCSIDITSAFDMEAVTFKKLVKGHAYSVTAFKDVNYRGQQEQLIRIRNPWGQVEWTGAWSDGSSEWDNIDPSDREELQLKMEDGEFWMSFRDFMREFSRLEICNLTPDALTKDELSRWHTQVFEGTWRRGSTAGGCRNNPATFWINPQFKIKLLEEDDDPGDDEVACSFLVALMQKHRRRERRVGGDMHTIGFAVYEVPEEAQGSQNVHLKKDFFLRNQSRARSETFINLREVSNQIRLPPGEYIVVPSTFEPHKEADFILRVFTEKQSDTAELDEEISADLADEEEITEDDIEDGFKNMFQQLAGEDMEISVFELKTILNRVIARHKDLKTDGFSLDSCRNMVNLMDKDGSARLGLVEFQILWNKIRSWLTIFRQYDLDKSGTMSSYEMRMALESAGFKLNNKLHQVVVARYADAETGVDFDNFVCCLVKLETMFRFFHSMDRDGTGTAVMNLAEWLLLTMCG
Put plainly: CANP inhibitory activity (method of Ishiura et al.). Type of data set: biochemical. Particulars: 50% inhibition in molar ratio to the enzyme. How it is done:
Their muscular dystrophy inhibitory activity was assayed by the method of Ishiura et al., [J. of Biochem., 84, 225 (1978)] using CANP prepared from a muscle of hereditary muscular dystrophy chicken, and the resulting value for 50% inhibition in the molar ratios for the enzyme expressed as ID50 (mole/mole) is shown in Table 1 below.

With `CC(C)C[C@H](NC(=O)C1OC1C(=O)OCc1ccccc1)C(=O)NCCCCCCCNC(=O)OCc1ccccc1` (mixture of isomers) [Compound 1, N-[N-(DL-3-trans-benzyloxycarbonyloxirane-2-carbonyl)-L-leucyl]-N'-benzyloxycarbonyl-1,7-diaminoheptane], the “Papain inhibitory activity ID50 (amount of inhibitor for 50% inhibition)” value at papain came out at 0.302 µg.
The molecule `CC(C)C[C@H](NC(=O)C1OC1C(=O)OCc1ccccc1)C(=O)NCCCCCNC(=O)OCc1ccccc1` (mixture of isomers) [Compound 2, N-[N-(DL-3-trans-benzyloxycarbonyloxirane-2-carbonyl)-L-leucyl]-N'-benzyloxycarbonyl-1,5-diaminopentane] had a concentration at 1 h in data set [1] of 1500 ng/mL. Besides, in data set [2], the “CANP Inhibitory Activity ID50 (mole/mole)” value stood at 121 mole/mole. The “Papain inhibitory activity ID50 (amount of inhibitor for 50% inhibition)” value at papain came out at 0.481 µg.
Consider `CC(C)C[C@H](NC(=O)C1OC1C(=O)OCc1ccccc1)C(=O)NCCNC(=O)OCc1ccccc1` (mixture of isomers) [Compound 3, N-[N-(DL-3-trans-benzyloxycarbonyloxirane-2-carbonyl)-L-leucyl]-N'-benzyloxycarbonyl-1,2-diaminoethane], for which, on papain, the “Papain inhibitory activity ID50 (amount of inhibitor for 50% inhibition)” value was 0.203 µg.
In the case of `CC(C)[C@H](NC(=O)C1OC1C(=O)OCc1ccccc1)C(=O)NCCCCNC(=O)OCc1ccccc1` (mixture of isomers) [Compound 4, N-[N-(DL-3-trans-benzyloxycarbonyloxirane-2-carbonyl)-L-valyl]-N'-benzyloxycarbonyl-1,4-diaminobutane], in data set [1], the concentration at 1 h stood at 1200 ng/mL. In addition, in data set [2], the “CANP Inhibitory Activity ID50 (mole/mole)” value is 113 mole/mole. The “Papain inhibitory activity ID50 (amount of inhibitor for 50% inhibition)” value at papain amounted to 0.436 µg.
On the same counts, the results for `CC[C@H](C)[C@H](NC(=O)C1OC1C(=O)OCc1ccccc1)C(=O)NCCCCNC(=O)OCc1ccccc1` (mixture of isomers) [Compound 5, N-[N-(DL-3-benzyloxycarbonyloxirane-2-carbonyl)-L-isoleucyl]-N'-benzyloxycarbonyl-1,4-diaminobutane] are 1400 ng/mL, 92 mole/mole and 0.323 µg.
On the same counts, the results for `CC(C)C[C@H](NC(=O)C1OC1C(=O)OC1CCCCC1)C(=O)NCCCCNC(=O)OCc1ccccc1` (mixture of isomers) [Compound 6, N-[N-(DL-3-trans-cyclohexyloxycarbonyloxirane-2-carbonyl)-L-leucyl]-N'-benzyloxycarbonyl-1,4-diaminobutane] are 1500 ng/mL, 75 mole/mole and 0.142 µg.
For `CC(C)C[C@H](NC(=O)C1OC1C(=O)OC1CCCC1)C(=O)NCCCCNC(=O)OCc1ccccc1` (mixture of isomers) [Compound 7, N-[N-(DL-3-trans-cyclopentyloxycarbonyloxirane-2-carbonyl)-L-leucyl]-N'-benzyloxycarbonyl-1,4-diaminobutane], the “Papain inhibitory activity ID50 (amount of inhibitor for 50% inhibition)” value on papain was determined as 0.164 µg.
As for `CC(=O)NCCCCNC(=O)[C@H](CC(C)C)NC(=O)C1OC1C(=O)OCc1ccccc1` (mixture of isomers) [Compound 8, N-[N-(DL-3-trans-benzyloxycarbonyloxirane-2-carbonyl)-L-leucyl]-N'-acetyl-1,4-diaminobutane], the concentration at 1 h in data set [1] is 1800 ng/mL. Moreover, the “CANP Inhibitory Activity ID50 (mole/mole)” value in data set [2] came out at 100 mole/mole. Also, on papain, the “Papain inhibitory activity ID50 (amount of inhibitor for 50% inhibition)” value was determined as 0.123 µg.
The corresponding values for `CC(C)C[C@H](NC(=O)C1OC1C(=O)OCc1ccccc1)C(=O)NCCCCNC(=O)c1ccccc1` (mixture of isomers) [Compound 9, N-[N-(DL-3-trans-benzyloxycarbonyloxirane-2-carbonyl)-L-leucyl]-N'-benzoyl-1,4-diaminobutane] are 1300 ng/mL, 89 mole/mole and 0.181 µg.
On the same counts, the results for `CC(C)C[C@H](NC(=O)C1OC1C(=O)OCc1ccccc1)C(=O)NCCCCNC(=O)OCc1ccccc1` (mixture of isomers) [Compound 10, N-[N-(DL-3-trans-benzyloxycarbonyloxirane-2-carbonyl)-L-leucyl]-N'-benzyloxycarbonyl-1,4-diaminobutane] are 1600 ng/mL, 78 mole/mole and 0.260 µg.
The corresponding values for `CC(C)C[C@H](NC(=O)C1OC1C(=O)O)C(=O)NCCCCNC(=O)OCc1ccccc1` (mixture of isomers) [Compound 11, N-[N-(DL-3-trans-carboxyoxirane-2-carbonyl)-L-leucyl]-N'-benzyloxycarbonyl-1,4-diaminobutane] are 13000 ng/mL, 19 mole/mole and 0.118 µg.
As to `CC(C)C[C@H](NC(=O)C1OC1C(=O)O)C(=O)NCCCCN` (mixture of isomers) [Compound 12, N-[N-(DL-3-trans-carboxyoxirane-2-carbonyl)-L-leucyl]-1,4-diaminobutane], in data set [1], the concentration at 1 h amounted to 25000 ng/mL. Moreover, the “CANP Inhibitory Activity ID50 (mole/mole)” value in data set [2] is reported as 55 mole/mole. Besides, at papain, the “Papain inhibitory activity ID50 (amount of inhibitor for 50% inhibition)” value amounted to 0.106 µg.
On to `CCOC(=O)[C@H]1O[C@@H]1C(=O)O` (relative stereo) [A, Ethyl hydrogen epoxysuccinate, reference compound], for which, in data set [2], the “CANP Inhibitory Activity ID50 (mole/mole)” value was 5,400 mole/mole.
On to `O=C(O)[C@H]1O[C@@H]1C(=O)OCc1ccccc1` (relative stereo) [B, Benzyl hydrogen epoxysuccinate, reference compound], for which the “CANP Inhibitory Activity ID50 (mole/mole)” value in data set [2] is 410 mole/mole.
Same read-out and setting: the value for `CCOC(=O)C1OC1C(=O)N[C@@H](CC(C)C)C(=O)OCc1ccccc1` (stereo partly drawn) [C, N--(3ethoxy-carbonyloxirane-2-carbonyl)-L-leucine benzyl ester, reference compound] was 580 mole/mole.
Take `CC(C)C[C@H](NC(=O)C1OC1C(=O)O)C(=O)O` (stereo partly drawn) [E, N--(3carboxyoxirane-2-carbonyl)-L-leucine, reference compound]: the “CANP Inhibitory Activity ID50 (mole/mole)” value in data set [2] is recorded as 4,600 mole/mole.

For the origin of these results see patent US4474800A, “Epoxysuccinyl amino acid derivatives” (Taisho Pharmaceutical Co., Ltd., priority 1980, dated 1984).
